US20240041877A1, “DOSAGE REGIME AND METHOD FOR TREATING PULMONARY ARTERIAL HYPERTENSION” (Altavant Sciences GmbH, priority 2019, published 2024)

Key:
[1] = system: plasma 5-HIAA (a PD marker of 5-HT synthesis); test: Part 2 (MAD) biomarker: plasma 5-HIAA change from Day 1 predose; type: in vivo, human; conditions: for mean reduction from Day 1 to Day 14 in plasma 5-HIAA: KAR5585 100 mg BID
Source text: (§1) Biomarkers were to be evaluated in Part 2 by measuring concentrations of serotonin (5-hydroxytryptamine [5-HT]) in serum and 5-hydroxyindoleacetic acid (5-HIAA) in plasma and urine. As well, the relationship of biomarkers to PK parameters was to be evaluated.
(§2) The biomarker analysis was to be based on the Biomarker Population (all subjects with evaluable biomarker measurements at baseline [Day 1 predose] and at least one after dosing [Day 7 or Day 14]).
(§3) Biomarker data were to be collected only in Part 2. The following biomarkers were to be analyzed: • Serum 5-HT • Plasma 5-HIAA • Urine 5-HIAA/24 hours (as measured, adjusted, estimated, and per gram creatinine)
The a priori primary biomarker endpoint was to be the change in plasma 5-HIAA concentration on Day 14 from Day 1.
(§4) Summary statistics (mean, standard deviation [SD], median, minimum [Min], and maximum [Max]) were to be tabulated for each biomarker, by Cohort, with absolute and relative (%) changes from Day 1 predose.
(§5) The values were to be tabulated with P values testing whether the difference of changes was equal to 0.
(§6) The biomarker portion of the study was conducted in Part 2 MAD using the Biomarker Population. The biomarkers evaluated were serum 5-HT and plasma 5-HIAA, as well as urine 5-HIAA/24 hours (as measured, adjusted, estimated, and per gram creatinine). Urinary 5-HIAA was determined by a validated (21 C.F.R. 58, GLP-compliant) method using liquid chromatographic separation and tandem mass spectrometry detection.

[2] = system: urine 5-HIAA (a PD marker of 5-HT synthesis); test: Part 2 (MAD) biomarker: urine 5-HIAA/24 hours (measured, adjusted, estimated, per gram creatinine); type: in vivo, human; conditions: no creatinine adjustment
Source text: as §1, §2, §3, §4, §5, §6
Urine 5 HIAA/24 hour was analyzed in 4 different manners: as measured in the 24-hour collection and (in order to correct for any collection errors) adjusted for creatinine excretion, estimated by the expected creatinine excretion for the subject (as defined in and expressed per gram creatinine. Results were similar for each of the 4 manners and are presented in this report for measured urine. Tables and figures for adjusted, estimated, and per-gram creatinine results are presented in Section 14.

[3] = all doses pooled, predose Day 7
[4] = all doses pooled, predose Day 14

## CCOC(=O)[C@@H]1CC2(CCN(c3cc(O[C@H](c4ccc(Cl)cc4-c4ccccc4)C(F)(F)F)nc(N)n3)CC2)CN1 [KAR5585, (S)-ethyl 8-(2-amino-6-((R)-1-(5-chloro-[1,1′-biphenyl]-2-yl)-2,2,2-trifluoroethoxy)pyrimidin-4-yl)-2,8-diazaspiro[4.5]decane-3-carboxylate]
[1]; 100 mg fasting, predose Day 7
  Plasma 5-HIAA: mean difference of % change from Day 1 between KAR5585 and placebo: 23.67%
  Plasma 5-HIAA: mean difference of absolute change from Day 1 between KAR5585 and placebo: 0.33 ng/mL
[1]; 100 mg fasting, predose Day 14
  Plasma 5-HIAA: mean difference of % change from Day 1 between KAR5585 and placebo: −48.83%
  Plasma 5-HIAA: mean difference of absolute change from Day 1 between KAR5585 and placebo: -5.92 ng/mL
[1]; 100 mg fed, predose Day 7
  Plasma 5-HIAA: mean difference of % change from Day 1 between KAR5585 and placebo: −48.56%
  Plasma 5-HIAA: mean difference of absolute change from Day 1 between KAR5585 and placebo: -4.56 ng/mL
[1]; 100 mg fed, predose Day 14
  Plasma 5-HIAA: mean difference of % change from Day 1 between KAR5585 and placebo: −52.70%
  Plasma 5-HIAA: mean difference of absolute change from Day 1 between KAR5585 and placebo: -4.50 ng/mL
[1]; 200 mg fed, predose Day 7
  Plasma 5-HIAA: mean difference of % change from Day 1 between KAR5585 and placebo: 12.06%
  Plasma 5-HIAA: mean difference of absolute change from Day 1 between KAR5585 and placebo: 1.22 ng/mL
[1]; 200 mg fed, predose Day 14
  Plasma 5-HIAA: mean difference of % change from Day 1 between KAR5585 and placebo: −52.46%
  Plasma 5-HIAA: mean difference of absolute change from Day 1 between KAR5585 and placebo: -5.25 ng/mL
[1]; 400 mg fed, predose Day 7
  Plasma 5-HIAA: mean difference of % change from Day 1 between KAR5585 and placebo: −76.47%
  Plasma 5-HIAA: mean difference of absolute change from Day 1 between KAR5585 and placebo: -11.44 ng/mL
[1]; 400 mg fed, predose Day 14
  Plasma 5-HIAA: mean difference of % change from Day 1 between KAR5585 and placebo: −73.45%
  Plasma 5-HIAA: mean difference of absolute change from Day 1 between KAR5585 and placebo: -10.69 ng/mL
[1]; fasting
  mean reduction from Day 1 to Day 14 in plasma 5-HIAA: −28.71%
[1]; fed
  mean reduction from Day 1 to Day 14 in plasma 5-HIAA: −32.58%
[1]; KAR5585 400 mg BID, fed
  mean percent change in plasma 5-HIAA from Day 1 to Day 7: −56.67%
[1]; KAR5585 400 mg BID, fed, listed as KAR5575
  mean percent change in plasma 5-HIAA concentration from Day 1 to Day 14: −53.33%
[1]; [3]
  Plasma 5-HIAA: mean difference of % change from Day 1 between KAR5585 and placebo: −22.33%
  Plasma 5-HIAA: mean difference of absolute change from Day 1 between KAR5585 and placebo: -3.61 ng/mL
[1]; [4]
  Plasma 5-HIAA: mean difference of % change from Day 1 between KAR5585 and placebo: −57.11%
  Plasma 5-HIAA: mean difference of absolute change from Day 1 between KAR5585 and placebo: -6.69 ng/mL
[1]; each dose group and all doses combined
  mean difference vs placebo of absolute and percent changes from Day 1 to Day 14 in plasma 5-HIAA, significance: statistically significant in favor of KAR5585 compared to placebo in each dose group and for all doses combined at Day 14
[2]; 100 mg fasting, Day 7
  Measured urine 5-HIAA: mean difference of % change from Day 1 between KAR5585 and placebo: −31.97%
  Measured urine 5-HIAA: mean difference of absolute change from Day 1 between KAR5585 and placebo: −0.92 mg/24 hours
[2]; 100 mg fasting, Day 14
  Measured urine 5-HIAA: mean difference of % change from Day 1 between KAR5585 and placebo: −17.65%
  Measured urine 5-HIAA: mean difference of absolute change from Day 1 between KAR5585 and placebo: −0.91 mg/24 hours
[2]; 100 mg fed, Day 7
  Measured urine 5-HIAA: mean difference of % change from Day 1 between KAR5585 and placebo: −50.34%
  Measured urine 5-HIAA: mean difference of absolute change from Day 1 between KAR5585 and placebo: −2.09 mg/24 hours
[2]; 100 mg fed, Day 14
  Measured urine 5-HIAA: mean difference of % change from Day 1 between KAR5585 and placebo: −36.03%
  Measured urine 5-HIAA: mean difference of absolute change from Day 1 between KAR5585 and placebo: −1.65 mg/24 hours
[2]; 200 mg fed, Day 7
  Measured urine 5-HIAA: mean difference of % change from Day 1 between KAR5585 and placebo: −26.95%
  Measured urine 5-HIAA: mean difference of absolute change from Day 1 between KAR5585 and placebo: −0.92 mg/24 hours
[2]; 200 mg fed, Day 14
  Measured urine 5-HIAA: mean difference of % change from Day 1 between KAR5585 and placebo: −37.11%
  Measured urine 5-HIAA: mean difference of absolute change from Day 1 between KAR5585 and placebo: −1.58 mg/24 hours
[2]; 400 mg fed, Day 7
  Measured urine 5-HIAA: mean difference of % change from Day 1 between KAR5585 and placebo: −49.41%
  Measured urine 5-HIAA: mean difference of absolute change from Day 1 between KAR5585 and placebo: −1.68 mg/24 hours
